This assay concerns the target T1, ΔF508-CFTR (Homo sapiens, UniProt P13569, DEL508-508).
T1 construct: Primary lung epithelial cells homozygous for the Cystic Fibrosis-causing ΔF508 mutation were differentiated for a minimum of 4 weeks; endogenous in cells; host or cells: primary lung (bronchial) epithelial cells (hBE) homozygous for ΔF508, differentiated at an air-liquid interface
Nature of the assay: hBE equivalent current (Ieq) assay. In kind it is cell-based. The settings on record: AUC of equivalent chloride current as % of VX-809 (1 uM); compound at 10 uM and VX-809 at 1 uM; primary hBE cells homozygous ΔF508, 24 h treatment. On the procedure: ii. hBE Equivalent Current (Ieq) Assay Primary lung epithelial cells homozygous for the Cystic Fibrosis-causing ΔF508 mutation were differentiated for a minimum of 4 weeks in an air-liquid interface on Costar 24 well HTS filter plates prior to the equivalent current (Ieq) measurements. Cells were apically mucus-washed for 30 minutes 24 h prior to treatment with compounds. The basolateral media was removed and replaced with media containing the compound of interest diluted to its final concentration from DMSO stocks. Treated cells were incubated at 37° C. and 5% CO2 for 24 hours. At the end of the treatment period, the media was changed to the Ieq experimental solution for 30 minutes before the experiment and plates are maintained in a CO2-free incubator during this period. The plates containing the cells were then placed in pre-warmed heating blocks at 36° C.±0.5 for 15 minutes before measurements are taken. The transepithelial voltage (VT) and conductance (GT) were measured using a custom 24 channel current clamp (TECC-24) with 24 well electrode manifold. The Ieq assay measurements were made following additions with standardized time periods: 1. The baseline VT and GT values were measured for approximately 20 minutes. 2. Benzamil was added to block ENaC for 15 minutes. 3. Forskolin plus VX-770 were added to maximally activate ΔF508-CFTR for 27 minutes. 4. Bumetanide was added to inhibit the NaK2Cl cotransporter and shut-off secretion of chloride. The activity data captured was the area under the curve (AUC) for the traces of the equivalent chloride current. The AUC was collected from the time of the forskolin/VX-770 addition until the inhibition by bumetanide addition. Correction in response to compound treatment was scored as the increase in the AUC for compound-treated samples over that of vehicle-treated samples. (** indicates activity ≥200% of VX-809 (1 uM) with compound at 10 uM and VX-809 at 1 uM; * indicates activity 100-200% of VX-809 (1 uM) with compound at 10 uM and VX-809 at 1 uM. ^## indicates activity ≥200% of VX-809 (3 uM) with compound at 10 uM and VX-809 at 3 uM; ^# indicates activity 100-200% of VX-809 (3 uM) with compound at 10 uM and VX-809 at 3 uM.

SMILES strings stand for the structures.

The values below come from US10017503B2, “Compounds, compositions, and methods for increasing CFTR activity” (Proteostasis Therapeutics, Inc., priority 2014, dated 2018).

T1 sequence (P13569 with tags, fused parts or gaps DEL508-508): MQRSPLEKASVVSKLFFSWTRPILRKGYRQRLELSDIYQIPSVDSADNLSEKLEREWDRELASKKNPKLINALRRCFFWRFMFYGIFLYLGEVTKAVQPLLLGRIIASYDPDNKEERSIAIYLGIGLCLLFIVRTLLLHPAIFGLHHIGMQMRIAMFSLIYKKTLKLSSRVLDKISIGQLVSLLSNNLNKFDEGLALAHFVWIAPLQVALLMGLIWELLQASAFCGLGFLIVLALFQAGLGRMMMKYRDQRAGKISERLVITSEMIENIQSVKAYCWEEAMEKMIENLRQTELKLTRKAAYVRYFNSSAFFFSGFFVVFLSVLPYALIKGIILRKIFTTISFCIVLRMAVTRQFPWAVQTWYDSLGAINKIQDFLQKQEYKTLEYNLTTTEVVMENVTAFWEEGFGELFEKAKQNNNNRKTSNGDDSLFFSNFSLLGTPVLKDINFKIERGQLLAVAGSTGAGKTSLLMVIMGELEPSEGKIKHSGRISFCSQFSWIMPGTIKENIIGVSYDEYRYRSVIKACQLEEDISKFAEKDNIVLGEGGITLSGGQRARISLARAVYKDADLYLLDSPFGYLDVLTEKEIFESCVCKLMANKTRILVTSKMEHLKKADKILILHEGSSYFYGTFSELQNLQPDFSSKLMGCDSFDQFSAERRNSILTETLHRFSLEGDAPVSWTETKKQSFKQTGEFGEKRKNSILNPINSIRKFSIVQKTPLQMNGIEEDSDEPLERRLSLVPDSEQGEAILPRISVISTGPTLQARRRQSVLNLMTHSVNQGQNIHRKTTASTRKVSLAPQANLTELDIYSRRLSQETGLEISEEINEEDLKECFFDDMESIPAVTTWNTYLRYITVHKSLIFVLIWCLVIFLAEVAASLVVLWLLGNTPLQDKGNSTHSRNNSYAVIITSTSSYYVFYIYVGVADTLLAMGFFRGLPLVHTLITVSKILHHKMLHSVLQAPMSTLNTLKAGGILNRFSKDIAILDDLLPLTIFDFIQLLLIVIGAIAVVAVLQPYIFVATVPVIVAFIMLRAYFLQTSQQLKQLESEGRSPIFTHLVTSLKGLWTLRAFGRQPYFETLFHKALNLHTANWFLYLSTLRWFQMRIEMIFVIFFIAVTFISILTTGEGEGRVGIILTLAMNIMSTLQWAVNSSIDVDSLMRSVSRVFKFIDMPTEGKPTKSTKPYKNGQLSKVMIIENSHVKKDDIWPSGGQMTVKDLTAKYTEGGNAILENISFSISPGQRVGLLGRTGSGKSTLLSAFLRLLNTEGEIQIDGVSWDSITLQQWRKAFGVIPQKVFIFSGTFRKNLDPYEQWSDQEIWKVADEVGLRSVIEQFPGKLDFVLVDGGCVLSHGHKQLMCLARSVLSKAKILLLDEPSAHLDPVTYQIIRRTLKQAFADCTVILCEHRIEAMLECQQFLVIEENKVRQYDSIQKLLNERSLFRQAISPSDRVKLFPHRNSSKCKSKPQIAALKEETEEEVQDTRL

As for `CN(CCCNC(=O)c1cc(-c2ccccc2)on1)S(=O)(=O)c1ncc[nH]1` [Compound B2, N-(3-(N-methyl-1H-imidazole-2-sulfonamido)propyl)-5-phenylisoxazole-3-carboxamide], the Ieq activity result was “** (activity ≥200% of VX-809 (1 uM) with compound at 10 uM and VX-809 at 1 uM)”.
With `O=C(NCCNS(=O)(=O)c1cc(CO)n[nH]1)c1cc(-c2ccccc2)on1` [Compound B3, N-(2-((3-(hydroxymethyl)-1H-pyrazole)-5-sulfonamido)ethyl)-5-phenylisoxazole-3-carboxamide] the entry was “* (activity 100-200% of VX-809 (1 uM) with compound at 10 uM and VX-809 at 1 uM)”.
For the compound `CN(CCCNC(=O)c1cc(-c2ccccc2)on1)S(=O)(=O)c1nccn1C` [Compound B10, N-(3-((N-1-dimethyl-1H-imidazole)-2-sulfonamido)propyl)-5-phenylisoxazole-3-carboxamide], the Ieq activity entry is “* (activity 100-200% of VX-809 (1 uM) with compound at 10 uM and VX-809 at 1 uM)”.
Consider `O=C(NCCCNS(=O)(=O)c1ccccn1)c1cc(-c2ccccc2)on1` [Compound B6, 5-phenyl-N-(3-(pyridine-2-sulfonamido)propyl)isoxazole-3-carboxamide], for which the Ieq activity entry was “** (activity ≥200% of VX-809 (1 uM) with compound at 10 uM and VX-809 at 1 uM)”.
In the case of `CC(O)c1nnc(NS(=O)(=O)CCNC(=O)c2cc(-c3ccccc3)on2)s1` (stereo in doubt) [Compound B9, (R)—N-(2-(N-(5-(1-hydroxyethyl)-1,3,4-thiadiazol-2-yl)sulfamoyl)ethyl)-5-phenylisoxazole-3-carboxamide], the Ieq activity result was “* (activity 100-200% of VX-809 (1 uM) with compound at 10 uM and VX-809 at 1 uM)”.
As to `Nc1cc(CO)nn1S(=O)(=O)CCNC(=O)c1cc(-c2ccccc2)on1` [Compound B7, N-(2-((5-amino-3-(hydroxymethyl)-1H-pyrazol-1-yl)sulfonyl)ethyl)-5-phenylisoxazole-3-carboxamide], the Ieq activity entry was “* (activity 100-200% of VX-809 (1 uM) with compound at 10 uM and VX-809 at 1 uM)”.
As for `O=C(NCCCNS(=O)(=O)c1ncc[nH]1)c1cc(-c2ccccc2)on1` [Compound B1], the entry is “** (activity ≥200% of VX-809 (1 uM) with compound at 10 uM and VX-809 at 1 uM)”.
With `O=C(NCCCNS(=O)(=O)c1cc(CO)n[nH]1)c1cc(-c2ccccc2)on1` [Compound B4, N-(3-((3-(hydroxymethyl)-1H-pyrazole)-5-sulfonamido)propyl)-5-phenylisoxazole-3-carboxamide] the entry was “** (activity ≥200% of VX-809 (1 uM) with compound at 10 uM and VX-809 at 1 uM)”; with `COCn1ccnc1S(=O)(=O)N(C)CCCNC(=O)c1cc(-c2ccccc2)on1` [Compound B11, N-(3-((1-(methoxymethyl)-N-methyl-1H-imidazole)-2-sulfonamido)propyl)-5-phenylisoxazole-3-carboxamide], “** (activity ≥200% of VX-809 (1 uM) with compound at 10 uM and VX-809 at 1 uM)”.
With `O=C(NCCCNS(=O)(=O)c1ncccn1)c1cc(-c2ccccc2)on1` [Compound B5, 5-phenyl-N-(3-(pyrimidine-2-sulfonamido)propyl)isoxazole-3-carboxamide] the entry was “** (activity ≥200% of VX-809 (1 uM) with compound at 10 uM and VX-809 at 1 uM)”; with `CC(O)c1nnc(NS(=O)(=O)CCNC(=O)c2cc(-c3ccccc3)on2)s1` (stereo in doubt) [Compound B8, (S)—N-(2-(N-(5-(1-hydroxyethyl)-1,3,4-thiadiazol-2-yl)sulfamoyl)ethyl)-5-phenylisoxazole-3-carboxamide], “* (activity 100-200% of VX-809 (1 uM) with compound at 10 uM and VX-809 at 1 uM)”.
